# Source: patent publication US7981901B2, “Compositions and methods for targeting cerebral circulation and treatment of headache” (priority 2001, dated 2011)
# Tests used:
# [1] = system: headache; experiment: Topical NSAID formulations in treatment of headache (inventors' observation); assay type: in vivo, human; conditions: topically applied to tender spot or area superficial to carotid, temporal and/or vertebral artery
# Description: Especially preferred compositions include a xanthine derivative in a concentration of about 4% (wt) to 70% (wt) and ketoprofen in a concentration of about 0.5% (wt) to 50% (wt). With respect to the xanthine derivative, the same considerations as described above apply. Furthermore, such particularly preferred compositions may be formulated in a lecithin-containing formulation or a pluronic-lecithin-organogel formulation (supra). It should be especially recognized, that compositions including a xanthine derivative or an NSAID have generally been described in the art. However, the inventors observed that formulations including an NSAID other than Ketoprofen generally fail to provide relief in treatment of a headache, when topically applied to a person (either to a tender spot, or to an area superficial to a carotid artery, a temporal artery and/or a vertebral artery). […] While not wishing to be bound by a particular hypothesis or theory, the inventors contemplate that the effect of Ketoprofen may be at least in part mediated by a muscle-relaxant effect rather than via a suppressive effect in inflammation.
# [2] = system: fever; conditions: oral delivery; cited from earlier work
Compound,relief in treatment of a headache [1],time to achieve sufficient concentration in the plasma to lower the fever [2]
"CC(C(=O)O)c1cccc(C(=O)c2ccccc2)c1 (centres unmarked) [Ketoprofen, 2-(meta-benzoylphenyl)propionic acid]",the only NSAID effective in treatment of a headache,
"CC(=O)Nc1ccc(O)cc1 [acetaminophen, Acetaminophen]",,at least 20 minutes
